pIC50: −log10 of the molar value. Where two headings read alike, the source gives them in different places.
How the values were obtained:
human 15-PGDH [1] = target: T1, human 15-PGDH (Homo sapiens, UniProt P15428); experiment: qHTS and 24-point re-test: fluorescence assay of NAD+ reduction to NADH on PGE2 oxidation (PubChem AID 894); assay type: biochemical
T1 construct: comprising residues 3–256 of the human HPGD gene (GenBank identifier: 1203982); His6 (GHHHHHH, behind the TEV site) (C, cleaved yes); made in house; host or cells: E. coli BL21(DE3)-R3
T1 sequence (P15428 3-256): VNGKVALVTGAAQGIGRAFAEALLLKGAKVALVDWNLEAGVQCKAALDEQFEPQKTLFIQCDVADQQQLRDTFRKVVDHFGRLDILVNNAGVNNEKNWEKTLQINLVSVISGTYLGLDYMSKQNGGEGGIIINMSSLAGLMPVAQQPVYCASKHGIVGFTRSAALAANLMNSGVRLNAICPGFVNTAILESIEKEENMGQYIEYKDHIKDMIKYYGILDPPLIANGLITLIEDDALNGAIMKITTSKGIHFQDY
Procedure: The assay was miniaturized to a 4-µL volume in 1536-well format: enzyme (3 µL) was dispensed first, followed by a pintool transfer of library compounds dissolved in DMSO. After equilibration, a substrate dispense (1 µL) initiated the enzymatic reaction (see Materials and Methods, for detailed protocol description). […] Hits associated with low-efficacy (<40% maximum inhibition), incomplete curves, as well as those displaying only a single-point inhibition at the top concentration tested were eliminated from further consideration. Similarly, the collection of real-time kinetic data allowed the autofluorescence of each compound to be evaluated by comparing the initial fluorescence read at top concentration with the mean value of uninhibited assay controls: compounds whose top-concentration initial well fluorescence exceeded six standard deviations over the mean were flagged as potential autofluorescent artifacts, [28] (see example in supplementary information Figure S1E). The complete screening and followup results are available in PubChem (PubChem Assay ID 894).
The enzymatic reaction was performed in 50 mM Tris-HCl pH 8.0, containing 0.01% Tween 20. […] The high-throughput screen was performed on a fully integrated robotic system (Kalypsys Inc, San Diego, CA) as described elsewhere. Library compounds, arrayed as seven-point inter-plate concentration series, were screened from the lowest (3.5 nM) to the highest (57.5 µM) concentration, with plates containing DMSO only, serving to note any systematic drifts in the signal, interspersed evenly throughout the screen (approximately every 50 plates). Briefly, 3 µL of reagents were dispensed into 1536-well Greiner black solid-bottom assay plates using integrated nanoliter solenoid-technology dispensers. Compounds and controls (23 nL) were transferred via Kalypsys pintool equipped with 1,536-pin array (10-nL slotted pins; V&P Scientific, Palo Alto, CA). After a 15-minute incubation (to allow for interaction between compound and enzyme), a 1-µL substrate addition step initiated the reaction. Kinetic data were collected on a ViewLux High-throughput CCD imager (Perkin-Elmer) equipped with standard UV fluorescence optics (exc. 340 nm, em. 450 nm).
Starting fluorescence intensity and the change in fluorescence over the two-minute initial rate period were recorded for every well. Screening data were normalized against no-enzyme (64 wells, columns 3 and 4) and no-compound (32 wells located in column 1) controls, and concentration-response relationships were derived as described previously. A four-parameter Hill equation [47] was fitted to the concentration-response data using publicly available algorithms (http://www.ncgc.nih.gov/pub/openhts/curvefit/).

human 15-PGDH [2] = target: T1, human 15-PGDH; experiment: Differential scanning fluorimetry (DSF), thermal stabilization; assay type: binding; details: for increase of stability by cofactor: versus ligand-free 15-PGDH
Procedure: A correlation between the ΔTm and the inhibitory potency has been shown in a number of protein-ligand systems, particularly for kinases [32]–[34].
Studies to assess the thermal stability of human 15-PGDH in presence of compounds were performed as described previously, with variations. Briefly, the protein was diluted to a final assay concentration of 1 µM in 100 mM Tris buffer pH 8.0, containing 0.01% Tween-20 and 1∶1000 SYPRO orange dye (Invitrogen). […] Compounds were added at a ratio of 1∶5 from appropriate stock solutions in 10% (v/v) DMSO to comprise either 50 or 250 µM final concentrations. Heat denaturation curves were recorded using a RT-PCR instrument (Mx3005p, Agilent) applying a temperature gradient of 2°C/min. […] 2.5 (ftp://ftp.sgc.ox.ac.uk/pub/biophysics) and PRISM 5.0 (GraphPad Software, Inc.).

human 15-PGDH [3] = target: T1, human 15-PGDH; experiment: Substrate (PGE2) and cofactor (NAD+) titrations, mechanism of action, global fitting; assay type: biochemical
Procedure: Kinetic studies were performed in 100 mM Tris buffer pH 8.0, containing 0.01% Tween-20 and 10 nM 15-PGDH enzyme. […] All inhibitor compounds were dissolved in 10% (v/v) DMSO at varying concentrations from which they were applied at 1∶5 ratio (resulting in a final concentration of 2% (v/v) DMSO in all assays). For each experiment an aliquot of purified enzyme was thawed freshly and pre-diluted to 10 µM in buffer I (5 mM Tris/HCl, pH 8.0, 150 mM NaCl, 0.01% Tween-20). All experiments were performed in white 384-well PCR microplates (Bio-Rad Laboratories, Inc.) in final assay volumes of 20 µL. Twelve-point compound titrations were set up from serially diluted stock solutions in 10% (v/v) DMSO. […] The initial rates recorded in compound titrations were plotted against -log[compound], and non-linear regression (Levenberg-Marquardt) fitting of the dose-response curve to the Hill equation [47] was performed to derive the IC50, using PRISM 5.0 (GraphPad Software, Inc.). For substrate/cofactor titrations, curves with initial rates plotted against the concentration of substrate or cofactor were fitted to the Michaelis-Menten equation, to derive maximal activities, V max, and Michaelis constants, K m. Fitting qualities were judged from the goodness of fit (R^2>0.98).

[4] = potency in 24-point titrations on re-test, 20 nM 15-PGDH, 1 mM NAD+, 30 µM PGE2, pH 8.0, read-out: qHTS IC50
[5] = potency in 24-point titrations on re-test, 20 nM 15-PGDH, 1 mM NAD+, 30 µM PGE2, pH 8.0
[6] = substrate, absence of inhibitor
[7] = cofactor, absence of inhibitor, 30 µM PGE2

Compound | pIC50 (human 15-PGDH [1]; [4]) | further results
COc1cccc(NC(=O)N2CCC3(CC2)C(=O)N(CC(=O)NCc2ccc4c(c2)OCO4)CN3c2ccccc2)c1 [Compound 76] | 6.95 | –
Cc1ccc2nc(SCC(=O)N3CCCC[C@@H]3C)c(C#N)cc2c1 [Compound 49] | – | qHTS IC50 [nM] (human 15-PGDH [1]; [5]): Inactive
CCc1nc(N2CCN(C(=O)c3ccco3)CC2)c(C#N)c2c1COC(C)(C)C2 [Compound 70] | 5.50 | –
CCCCc1ccc(NC(=O)C2=CN3CCS(=O)(=O)N=C3C=C2)cc1 [Compound 67] | 6.40 | –
O=c1oc2c(O)c(O)cc3c(=O)oc4c(O)c(O)cc1c4c23 [Compound 86] | 7.35 | –
COC(=O)CSc1nc2cc(Br)c(C)nc2[nH]1 [Compound 58] | 4.80 | –
O=C(O)c1cccc(Oc2cc(Cl)cc(Cl)c2)c1 [Compound 51] | 5.20 | –
Cc1ccc2nc(Cl)c(CO)cc2c1 [Compound 46] | 6.00 | –
CC(C)(C)c1ccc(C(=O)O/N=C(\N)c2ccc(Cl)cc2)cc1 [Compound 39] | – | qHTS IC50 [nM] (human 15-PGDH [1]; [5]): inactive
COc1ccc2ccccc2c1C=C1N=C(c2ccc(C)c(C)c2)OC1=O [Compound 19] | 6.15 | –
COc1ccc(OC)c(C=Cc2ccc(N3C(=O)C4CC=C5C(c6cc(Br)c(O)c(OC)c6)C6=C(CC5C4C3=O)C(=O)C=C(C)C6=O)cc2)c1 (stereo not shown) [Compound 27] | 4.80 | –
COC(=O)CN(C)C(=O)c1cc(Cl)c(OCC(C)C)c(OC)c1 [Compound 21] | 6.40 | –
CCNC(=S)NN=Cc1cccn1-c1ccccc1 [Compound 33] | – | qHTS IC50 [nM] (human 15-PGDH [1]; [5]): inactive
NC(=O)C1=CN([C@@H]2O[C@H](COP(=O)(O)OP(=O)(O)OC[C@H]3O[C@@H](n4cnc5c(N)ncnc54)[C@H](O)[C@@H]3O)[C@@H](O)[C@H]2O)C=CC1 [NADH, reference compound] | – | Tm of 15-PGDH in the presence of cofactor (human 15-PGDH [2]; pH 8.0, ligand-free Tm 41.2±0.3°C): 52.5±0.4 °C; increase of stability by cofactor (human 15-PGDH [2]; pH 8.0): more than 10 °C
Cc1ccc(-c2nc3c4cnn(-c5cccc(Cl)c5)c4ncn3n2)cc1 [Compound 25] | 4.90 | –
CC1(C)Oc2c(N=C=O)ccc(Cl)c2C1=O [Compound 87] | 5.50 | –
C=C[C@@]1(C)CCCC[C@H]1CC#CCCCC [Compound 15] | 7.20 | –
COc1ccc(/C=C2\SC(=O)N(CCNC(=O)c3ccc(Br)o3)C2=O)cc1OC [Compound 81] | 5.80 | –
COc1ccc(NC(=O)c2sccc2S(=O)(=O)N2CCCCC2)c(OC)c1 [Compound 41] | 5.30 | –

Compound | pIC50 (human 15-PGDH [1]; [4]) | further results
Cc1ccc(CN(c2ccc(C(=O)N3CCc4ccccc4C3)cc2)S(C)(=O)=O)cc1 [Compound 26] | 4.95 | –
CC1=NOC(=O)C1=Cc1ccc(-c2cc(Cl)ccc2Cl)o1 [Compound 62] | 6.35 | –
O=C(CSc1n[nH]c(-c2ccccc2)n1)Nc1ncc(Br)cc1Br [Compound 40] | 5.85 | –
CN1CCCc2cccc(C[S+]([O-])c3ncc[nH]3)c21 (stereo not shown) [Compound 82] | 6.30 | –
Cc1c(Cl)cccc1NC(=O)CNC(=O)c1cncn1-c1ccc(F)cc1 [Compound 38] | – | qHTS IC50 [nM] (human 15-PGDH [1]; [5]): Inactive
O=C1Nc2ccc(I)cc2/C1=C/c1cc(Br)c(O)c(Br)c1 [GW5074, reference compound] | – | pIC50 (human 15-PGDH [1]; control inhibitor, 16-point dilution series in duplicate on every qHTS plate, read-out: average IC50): 4.98
CCNC(=O)c1ccc(CSc2ccc(Cl)cc2)cc1 [Compound 74] | 5.40 | –
O=C(NCCc1ccc(Cl)cc1)C1CCC(CNc2c(N3CCCCC3)c(=O)c2=O)CC1 (stereo not shown) [Compound 53] | 4.75 | –
COc1ccc(N2CCN(C(=O)c3ccc(CSc4ccccc4)cc3)CC2)cc1 [Compound 6] | – | qHTS IC50 [nM] (human 15-PGDH [1]; [5]): Inactive; pIC50 (human 15-PGDH [1]; re-test of qHTS hits, Figure 2, read-out: IC50 from re-testing): < 5.00
CCCCCCCCCOC(=O)c1ccc2c(c1)N(CCCS(=O)(=O)O)/C(=C\C=C\c1n(CCCS(=O)(=O)O)c3cc(C(=O)OCCCCCCCCC)ccc3[n+]1CC)N2CC [Compound 68] | 6.35 | –
CCCCC[C@H](O)/C=C/[C@H]1[C@H](O)CC(=O)[C@@H]1C/C=C\CCCC(=O)O [PGE2, 15-hydroxyprostaglandin type-E2, reference compound] | – | catalytic efficiency, k cat/K m (human 15-PGDH [3]; PGE2, absence of inhibitor): 2.5·10^6; catalytic constant, k cat (human 15-PGDH [3]; oxidation of PGE2, absence of inhibitor): about 14 per second; Titration of PGE2 K m (human 15-PGDH [3]; [6]): 5.5 ± 0.6 µM; Titration of PGE2 V max[µmol/(min×mg)] (human 15-PGDH [3]; [6]): 28.1 µmol/min/mg; Titration of PGE2 k cat/K m[×10^6] (human 15-PGDH [3]; [6]): 2.5 ×10^6; Titration of PGE2 k cat[1/sec] (human 15-PGDH [3]; [6]): 13.6 ± 0.3 s⁻¹; ΔTm in the presence of NAD+ (human 15-PGDH [2]): 2.4 °C; ΔTm in the presence of NADH (human 15-PGDH [2]): no stabilization; stabilization without cofactor (human 15-PGDH [2]; in words): failed to stabilize
O=C(O)c1ccc(Cl)c(Cl)c1Br [Compound 52] | 4.85 | –
CC(C)CC=NCCCCCCN=CCC(C)C [Compound 83] | 5.90 | –
Fc1ccccc1-c1nnc(SCCc2ccncc2)n1C1CC1 [Compound 24] | – | qHTS IC50 [nM] (human 15-PGDH [1]; [5]): Inactive
FC(F)(F)c1ccc(-c2nnco2)cc1 [Compound 73] | 6.90 | –
COc1ccc(OC)c(NC(=O)Cc2cc(Cl)ccc2OC)c1 [Compound 69] | 6.25 | –
Cc1ccccc1OCc1nnc(SCC(N)=O)o1 [Compound 47] | 6.80 | –
COCCNC(=O)C1CSC(c2ccccc2)N1C(=O)c1ccc(OC)c(OC)c1 (stereo not shown) [Compound 28] | – | qHTS IC50 [nM] (human 15-PGDH [1]; [5]): inactive
NC(=O)c1ccc[n+]([C@@H]2O[C@H](COP(=O)([O-])OP(=O)(O)OC[C@H]3O[C@@H](n4cnc5c(N)ncnc54)[C@H](O)[C@@H]3O)[C@@H](O)[C@H]2O)c1 [NAD^+] | – | Titration of NAD^+ K m (human 15-PGDH [3]; [7]): 15.8 ± 0.9 µM; Titration of NAD^+ V max [µmol/(min×mg)] (human 15-PGDH [3]; [7]): 21.2 µmol/min/mg; Titration of NAD^+ k cat/K m[×10^6] (human 15-PGDH [3]; [7]): 0.7 ×10^6; Titration of NAD^+ k cat[1/sec] (human 15-PGDH [3]; [7]): 10.3 ± 0.1 s⁻¹; increase of stability by cofactor (human 15-PGDH [2]; pH 8.0): more than 4 °C

From publication PMC2970562, “High-Affinity Inhibitors of Human NAD^+-Dependent 15-Hydroxyprostaglandin Dehydrogenase: Mechanisms of Inhibition and Structure-Activity Relationships” (PLoS ONE, 2010)
